Experimental findings from patent US5610297A, “Peptides ketoamides” (Georgia Tech Research Corp., priority 1995, dated 1997) are described below.

Test [1] has as its target porcine pancreatic elastase (PPE) (Sus scrofa, UniProt P00772). The experiment in a line: Inhibition of PP elastase (Suc-Ala-Ala-Ala-NA hydrolysis). In kind it is biochemical. The procedure:
Assay of Inhibitory Potency. Peptide α-ketoamides were assayed as reversible enzyme inhibitors. Various concentrations of inhibitors in Me2 SO were added to the assay mixture which contained buffer and substrate. The reaction was started by the addition of the enzyme and the hydrolysis rates were followed spectrophotometrically or fluorimetrically.
A 0.1M Hepes, 0.5M NaCl, pH 7.5 buffer was utilized for human leukocyte elastase (HLE), porcine pancreatic elastase (PPE), chymotrypsin and cathepsin G. A 0.1 Hepes, 0.01M CaCl2, pH 7.5 buffer was utilized for trypsin, plasmin, and coagulation enzymes. A 50 mM Tris-HCl, 2 mM EDTA, 5 mM cysteine, pH 7.5 was used as a buffer for papain. A 88 mM KH2 PO4, 12 mM Na2 HPO4, 1.33 mM EDTA, 2.7 mM cysteine, pH 6.0 solution was used as a buffer for cathepsin B. A 20 mM Hepes, 10 mM CaCl2, 10 mM mercatoethanol, pH 7.2 buffer was utilized for calpain I and calpain II.
HLE and PPE were assayed with MeO-Suc-Ala-Ala-Pro-Val-NA and Suc-Ala-Ala-Ala-NA, respectively [Nakajima et al., J. Biol. Chem. 254, 4027-4032 (1979); incorporated herein by reference]. Human leukocyte cathepsin G and chymotrypsin Aα were assayed with Suc-Val-Pro-Phe-NA [Tanaka et al., Biochemistry 24, 2040-2047 (1985); incorporated herein by reference]. The hydrolysis of peptide 4-nitroanilides was measured at 410 nm [ε410 =8800 M^-1 cm^-1; Erlanger et al., Arch. Biochem. Biophys. 95, pp 271-278 (1961); incorporated herein by reference]. Trypsin, thrombin, human plasma kallikrein, porcine pancreatic kallikrein, human factor XIa, and human plasmin were assayed with Z-Arg-SBzl or Z-Gly-Arg-SBu-i [McRae et al., Biochemistry 20, 7196-7206 (1981); incorporated herein by reference]. All peptide thioester hydrolysis rates were measured with assay mixtures containing 4,4'-dithiodipyridine [ε324 =19800 M^-1 cm^-1; Grasetti & Murray, Arch. Biochem. Biophys. 119, 41-49 (1967); incorporated herein by reference].

Test [2] concerns Calpain-mediated breakdown of spectrin in platelets. The experiment in a line: Platelet membrane permeability assay. In kind it is cell-based, rat. Details: unit not given here. Conditions: numeric value, unit not given. As for the experimental part:
Platelet membrane permeability assay. Calpain-mediated breakdown of spectrin was measured by quantitative densitometry of the calpain-specific 150/155 kDa spectrin fragment doublet [see Siman et al., Proc. Natl. Acad. Sci. USA 81, 3572-3576 (1984)]. Platelets were isolated by a modification of the method of Ferrell and Martin [J. Biol. Chem. 264, 20723-20729 (1989)]. Blood (15-20 ml) was drawn from male Sprague-Dawley rats into 1/10th volume of 100 mM EDTA-citrate, and centrifuged 10 minutes at 2000 rpm in a clinical centrifuge at room temperature. […] Platelets were washed once in 15 ml buffer 1, then resuspended to 10^7 cells/ml in buffer 2 (136 mM NaCl, 2.7 mM KCl, 0.42 mM NaH2 PO4, 12 mM NaHCO3, 2mM MgCl, 1 mg/ml BSA (Sigma), 5.6 mM glucose, 20 mM HEPES (Sigma) pH 7.4) and allowed to "rest" for a minimum of 10 minutes at room temperature before use.
Inhibitors were added from stock solutions made fresh in DMSO. 100 μl platelets, suspended to 10^7 cells/ml in buffer 2, were incubated with 1 μl of an inhibitor solution for 5 minutes at room temperature prior to the addition of 2 mM Ca^2+ and 1 uM A23 187. After 10 minutes total exposure to inhibitor (5 minutes exposure to ionophore) at room temperature, platelets were reisolated at 14,000 rpm for 10 sec in a Beckman microfuge, dissolved in SDS-PAGE sample buffer, and heated to 90° C. for 3 minutes.
Samples were subjected to SDS-PAGE in 4-12% gradient mini gels (Novex) and transferred to nitrocellulose (Schleicher and Schuell 0.45 um) by electroblotting. Filters were blocked for 10 minutes in 0.25% gelatin, 1% BSA, 0.25% triton X100, 0.9% NaCl, 10 mM Tris-Cl pH 7.5, incubated overnight in the same solution containing antibody to rat spectrin, washed 3×10 minutes with 10 mM Tris-Cl pH 7.5, 0.5% triton X100, incubated 4 hours in wash buffer plus alkaline phosphatase conjugated goat anti-rabbit antibody (Biorad), and washed as above. Blots were developed using the Biorad AP conjugate substrate kit. Quantitative densitometry was used to obtain values for the intact spectrin bands and the 150/155 kDa breakdown product doublet.

pKi: −log10 of the molar value.

Chain of porcine pancreatic elastase (PPE) (P00772 27-266): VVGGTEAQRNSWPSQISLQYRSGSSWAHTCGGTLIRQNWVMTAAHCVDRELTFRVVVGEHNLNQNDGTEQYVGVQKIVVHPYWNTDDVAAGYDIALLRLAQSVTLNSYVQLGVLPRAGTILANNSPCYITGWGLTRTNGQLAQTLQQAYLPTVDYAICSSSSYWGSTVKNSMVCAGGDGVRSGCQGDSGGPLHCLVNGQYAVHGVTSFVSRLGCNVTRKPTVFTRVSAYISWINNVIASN

Regarding `CCNC(=O)C(=O)[C@H](Cc1ccccc1)NC(=O)[C@H](CC(C)C)NC(=O)OCc1ccccc1` [Z--Leu--Phe--CONH--Et, Z-Leu-Phe-CONH-Et], in test [1], the pKi is less than 3.82. The “platelet (Activity in the Platelet Assay)” value in test [2] came out at 1.7.
For `CCCNC(=O)C(=O)C(Cc1ccccc1)NC(=O)C(CC(C)C)NC(=O)OCc1ccccc1` (stereo not drawn) [Z--Leu--Phe--CONH--nPr, Z-Leu-Phe-CONH-nPr] the same measures were less than 3.52 and 24.
`CCCCNC(=O)C(=O)C(CC)NC(=O)C(CC(C)C)NC(=O)OCc1ccccc1` (stereo not drawn) [Z--Leu--Abu--CONH--nBu, Z-Leu-Abu-CONH-nBu] had a pKi in test [1] of 5.30. Also, the “platelet (Activity in the Platelet Assay)” value in test [2] is 2.0.
The corresponding values for `CCNC(=O)C(=O)[C@H](CC)NC(=O)[C@H](CC(C)C)NC(=O)OCc1ccccc1` [Z--Leu--Abu--CONH--Et, Z-Leu-Abu-CONH-Et] are 4.19 and 1.5.

Broadly, the pKi is the negative decadic logarithm of the Ki, by convention in mol/L.
